In patent publication EP1268487B1, “TRICYCLIC PROTEIN KINASE INHIBITORS” (Wyeth, priority 2000, dated 2001) one finds IC50 and inhibition data, which are given here for three compounds.

The target of one experiment is T1, p60^c-src (Homo sapiens, UniProt P12931).
T1 construct: purchased Upstate Biotechnologies
The experiment in a line: Src kinase assay (ELISA format). The format is biochemical. As to the method:
Inhibitors of p60^c-src (partially purified preparation purchased from Upstate Biotechnologies) tyrosine kinase activity are analyzed in an ELISA format. The Boehringer Mannheim Tyrosine Kinase Assay Kit (Catalog number 1-534505) with a cdc2 substrate peptide containing Tyr15 is used for the assay. HRP-conjugated anti-phosphotyrosine is used to detect phosphorylated peptide via a color reaction. Conditions recommended by the manufacturer are employed.
Reaction conditions: Five microliter aliquots of each compound prepared fresh at the time of the assay are added as a solution in 10mM HEPES pH 7.5, 10% DMSO to the reaction well. Thirty-five microliters of reaction mix containing Src, buffer and peptide/bovine serum albumin mix are added to the compound wells and incubated at 30°C for 10 minutes (reaction buffer: 50mM TrisHCl pH 7.5, 10mM MgCl2, 0.1mM EGTA, 0.5mM Na3VO4). The reaction is started by addition of 10 microliters of ATP, incubated at 30°C for 1 hour, and stopped by addition of 20 microliters of 0.5M EDTA. The reaction mixture with the phosphorylated peptide was then transferred to a streptavidin-coated microtiter plate (provided in the kit) and allowed to bind for 20 minutes. […] Substrate (provided in the kit) was added and absorbance at 405nm was measured.
Activity was determined as % inhibition as calculated by the formula: (1 - Abs/Abs(max)) x 100 = % inhibition. […]
A general note: An ELISA detects its analyte on a solid surface through an enzyme-linked reagent.

The next experiment deals with Her2Neu. The experiment is described as follows: Inhibition of cancer cell growth as measured by cell number (Sulforhodamine B). The format is cell-based. The conditions noted are these: 48 hours exposure; 3T3 line transfected with Her2 receptor kinase. As to the method: (§1) Human tumor cell lines were plated in 96-well plates (250 µl/well, 1-6 x 10^4 cells/ml) in RPMI 1640 medium, containing 5% FBS (Fetal Bovine Serum). […] After 48 hours exposure to test compounds, cells were fixed with trichloroacetic acid, and stained with Sulforhodamine B. After washing with trichloroacetic acid, bound dye was solubilized in 10 mM Tris base and optical density was determined using a plate reader. Under conditions of the assay the optical density is proportional to the number of cells in the well. IC50s (concentrations causing 50% inhibition of cell growth) were determined from the growth inhibition plots. The test procedure is described in details by Philip Skehan et. al, J.Natl. Canc. Inst., 82, 1107-1112 (1990). […] Information about some of the cell lines used in these test procedures is available from the American Type Tissue Collection: Cell Lines and Hybridomas, 1994 Reference Guide, 8th Edition. The Her2Neu cell line is a 3T3 line that has been transfected with Her2 receptor kinase.

In a further experiment the test system is MDA435. The description is as above. The format is cell-based. The conditions noted are these: Homo sapiens, 48 hours exposure. As for the experimental part:
as §1

The next experiment concerns SW620. Described as above. The format is cell-based. The conditions noted are these: Homo sapiens, SW-620; 48 hours exposure. As for the experimental part:
as §1

Another experiment deals with SKBR3. The experiment is described as above. The format is cell-based. The conditions noted are these: Homo sapiens, SK-BR-3; 48 hours exposure. As for the experimental part:
as §1

Another experiment has as its system A431. The description is as above. The format is cell-based. Particulars: Homo sapiens, A-431; 48 hours exposure. As for the experimental part:
as §1

The next experiment has as its system 3T3. The description is as above. The format is cell-based. Particulars: Mus musculus, NIH3T3; 48 hours exposure. As to the method:
as §1

The next experiment addresses T2, c-Met (Homo sapiens, UniProt P08581).
T2 construct: The cytoplasmic domain of c-Met was generated by reverse transcriptase-polymerase chain reaction; His tag (from pFastBac-HTc vector; purified on Ni-NTA/Talon); made in house; host or cells: Sf9 insect cells (baculovirus)
The experiment is described as follows: DELFIA assay for c-Met receptor kinase inhibitors. The format is biochemical. As for the experimental part: The c-Met kinase assay was performed as a DELFIA (dissociation enchanced lanthanide fluorometric immunoassay), an ELISA-like protocol based upon time-resolved fluorometry as described previously [Braunwalder, A. F., Yarwood, D.R., Sills, M.A., and Lipson, K.E., Anal. Biochem. 238, 159-164 (1996)]. The protocol was adopted for the screening of inhibitors of the kinase activity of recombinant c-Met. [Loganzo, F., and. Hardy, C., American Biotechnology Laboratory 16(13), 26-28 (1998)]. The cytoplasmic domain of c-Met was generated by reverse transcriptase-polymerase chain reaction using RNA isolated from human mammary epithelial cells as template, cloned into the pFastBac-HTc vector (Life Technologies) and protein expressed in Sf9 insect cells by baculovirus infection. Protein was purified by imidazole elution from Ni-NTA resin (Invitrogen, Carlsbad, CA) or Talon resin (Clontech, Palo Alto, CA). Various conditions were evaluated for the kinase screening protocol and screening was accomplished with the following method. Polystyrene Maxisorp plates (Nunc) were pre-coated for 1 hour to overnight at room temperature with 5 µg/ml poly(Glu4-Tyr) diluted in Tris-buffered saline (TBS). Plates were washed 3X with TBS. c-Met protein preparation was diluted 1:80 into 0.1% BSA/ 4 mM HEPES. A master mix was prepared consisting of: 1 volume of diluted c-Met, 1 volume of 5X buffer (20 mM HEPES, pH 7.4; 2 mM MnCl2; 100 µM Na3VO4; 1 mM DTT), 0.9 volume of water. Master mix (29 µl) was added to the wells of peptide-coated microtiter plates. For assays where c-Met autophosphorylation was evaluated, plates were uncoated and c-Met was diluted into 4 mM HEPES at 1:40 without BSA. Compounds (1 µl) at various dilutions (1 mM to 0.1 µM) prepared in DMSO were added and mixed well with an automatic piptettor. After incubation 20 minutes at room temperature, the reaction was initiated with 20 µl of 62.5 µM ATP/ 50 mM MgCl2 (final 25 µM ATP/ 20 mM MgCl2 in assay). Reactions were incubated 45 minutes at room temperature. Plates were then washed 3X with 100 µl each of DELFIA wash buffer (Wallac). Antibody binding was performed by adding 75 µl of Europium-conjugated anti-phosphotyrosine diluted 1:2000 in Assay Buffer (Wallac) for 1 hour at room temperature. Plates were washed 3X with DELFIA wash buffer. Detection was done by addition of 100 µl of Enhancement Solution (Wallac). After 30 minutes, plates were read in a Wallac VICTOR-2 time-resolved fluorometer. Inhibition data was reported as europium counts for compound treated wells normalized to control counts. IC50 values were obtained by using log doses of compound and calculated using Data Analysis Toolbox software, version 1.0.2 (MDL Information Systems, Inc.).

Experiment [1] deals with T3, Epidermal Growth Factor Receptor Kinase (EGF-R) (Homo sapiens, UniProt P00533).
T3 construct: containing the EGFR cDNA encoding amino acids 645 - 1186 preceded by Met-Ala-(His)6; Met-Ala-(His)6 (N); made in house; host or cells: Sf9 insect cells (baculovirus vHcEGFR52)
The experiment is described as follows: Inhibition of Epidermal Growth Factor Receptor Kinase (EGF-R) using recombinant enzyme. The format is biochemical. Particulars: for inhibition at 0.5 µM: 0.5 µM concentration of test compound. As to the method:
Representative test compounds were evaluated for their ability to inhibit the phosphorylation of the tyrosine residue of a peptide substrate catalyzed by the enzyme epidermal growth factor receptor kinase. The peptide substrate (RR-SRC) has the sequence arg-arg-leu-ile-glu-asp-ala-glu-tyr-ala-ala-arg-gly. The enzyme used in this assay is the His-tagged cytoplasmic domain of EGFR. A recombinant baculovirus (vHcEGFR52) was constructed containing the EGFR cDNA encoding amino acids 645 - 1186 preceded by Met-Ala-(His)6. Sf9 cells in 100 mm plates were infected at an moi of 10 pfu/cell and cells were harvested 48 hours post infection. A cytoplasmic extract was prepared using 1% Triton X-100 and applied to Ni-NTA column. After washing the column with 20 mM imidazole, HcEGFR was eluted with 250 mM imidazole (in 50 mM Na2HPO4, pH 8.0, 300 mM NaCl). Fractions collected were dialyzed against 10 mM HEPES, pH 7.0, 50 mM NaCl, 10% glycerol, 1µg/mL antipain and leupeptin and 0.1 mM Pefabloc SC. The protein was frozen in dry ice/methanol and stored -70° C.
Test compounds were made into 10 mg/mL stock solutions in 100% dimethylsulfoxide (DMSO). Prior to experiment, stock solutions were diluted to 500 µM with 100% DMSO and then serially diluted to the desired concentration with HEPES buffer (30 mM HEPES pH 7.4).
For the enzyme reaction, 10 µL of each inhibitor (at various concentrations) were added to each well of a 96-well plate. To this was added 3 µL of enzyme (1:10 dilution in 10mM HEPES, pH 7.4 for final conc. of 1:120). This was allowed to sit for 10 minutes on ice and was followed by the addition of 5 µl peptide (80 uM final conc.), 10µl of 4X Buffer (Table A), 0.25 µL ^33P-ATP and 12 µL H2O. The reaction was allowed to run for 90 minutes at room temperature and was followed by spotting the entire volume on to precut P81 filter papers. The filter discs were washed 2X with 0.5% phosphoric acid and radioactivity was measured using a liquid scintillation counter. Table A
The inhibition data for representative compounds of the invention are shown below in TABLE 1. The IC50 is the concentration of test compound needed to reduce the total amount of phosphorylated substrate by 50%. The % inhibition of the test compound was determined for at least three different concentrations and the IC50 value was evaluated from the dose response curve. […] CPM(control) is in units of counts per minute and was a number expressing the amount of radiolabeled ATP (γ-^33P) incorporated into the RR-SRC peptide substrate by the enzyme after 90 minutes at room temperature in the absence of test compound as measured by liquid scintillation counting. The CPM values were corrected for the background counts produced by ATP in the absence of the enzymatic reaction. Where it was possible to determine an IC50 value, this is reported in TABLE 1 otherwise the % inhibition at 0.5 µM concentration of test compound is shown in TABLE 1.

One may read the IC50 as the concentration needed to halve the response being measured. As a reminder, the inhibition is the relative decrease from the control value, in per cent.

Values after ≈ are worked out from the molar mass of the structure shown.

T3 sequence (P00533 669-1210): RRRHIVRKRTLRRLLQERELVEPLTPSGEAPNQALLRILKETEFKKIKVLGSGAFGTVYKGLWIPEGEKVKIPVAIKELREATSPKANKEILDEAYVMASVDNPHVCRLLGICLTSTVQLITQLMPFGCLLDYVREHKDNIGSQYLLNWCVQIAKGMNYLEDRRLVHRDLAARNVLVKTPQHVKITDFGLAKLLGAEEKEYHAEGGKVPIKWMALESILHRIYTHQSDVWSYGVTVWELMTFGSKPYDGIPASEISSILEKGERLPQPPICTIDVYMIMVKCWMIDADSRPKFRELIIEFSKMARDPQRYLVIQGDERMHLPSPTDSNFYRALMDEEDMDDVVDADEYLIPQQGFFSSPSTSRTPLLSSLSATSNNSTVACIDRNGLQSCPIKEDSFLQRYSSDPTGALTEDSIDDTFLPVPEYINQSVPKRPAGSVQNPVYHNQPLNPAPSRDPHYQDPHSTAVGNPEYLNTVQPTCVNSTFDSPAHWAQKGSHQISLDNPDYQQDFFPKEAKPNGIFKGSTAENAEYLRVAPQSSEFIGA
T2 sequence (P08581 956-1390 limits assumed): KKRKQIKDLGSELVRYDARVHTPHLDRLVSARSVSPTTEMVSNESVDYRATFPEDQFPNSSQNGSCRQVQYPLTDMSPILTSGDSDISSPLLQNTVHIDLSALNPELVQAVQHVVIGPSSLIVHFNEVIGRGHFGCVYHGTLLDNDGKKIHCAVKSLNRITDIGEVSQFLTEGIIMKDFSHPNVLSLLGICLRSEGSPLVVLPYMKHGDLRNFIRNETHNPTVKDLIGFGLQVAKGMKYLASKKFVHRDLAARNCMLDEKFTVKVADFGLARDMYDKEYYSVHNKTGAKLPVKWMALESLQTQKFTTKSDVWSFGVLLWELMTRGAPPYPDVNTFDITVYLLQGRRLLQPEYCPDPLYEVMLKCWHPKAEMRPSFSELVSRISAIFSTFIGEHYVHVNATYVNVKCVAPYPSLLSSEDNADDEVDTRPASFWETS
T1 sequence (P12931 whole entry): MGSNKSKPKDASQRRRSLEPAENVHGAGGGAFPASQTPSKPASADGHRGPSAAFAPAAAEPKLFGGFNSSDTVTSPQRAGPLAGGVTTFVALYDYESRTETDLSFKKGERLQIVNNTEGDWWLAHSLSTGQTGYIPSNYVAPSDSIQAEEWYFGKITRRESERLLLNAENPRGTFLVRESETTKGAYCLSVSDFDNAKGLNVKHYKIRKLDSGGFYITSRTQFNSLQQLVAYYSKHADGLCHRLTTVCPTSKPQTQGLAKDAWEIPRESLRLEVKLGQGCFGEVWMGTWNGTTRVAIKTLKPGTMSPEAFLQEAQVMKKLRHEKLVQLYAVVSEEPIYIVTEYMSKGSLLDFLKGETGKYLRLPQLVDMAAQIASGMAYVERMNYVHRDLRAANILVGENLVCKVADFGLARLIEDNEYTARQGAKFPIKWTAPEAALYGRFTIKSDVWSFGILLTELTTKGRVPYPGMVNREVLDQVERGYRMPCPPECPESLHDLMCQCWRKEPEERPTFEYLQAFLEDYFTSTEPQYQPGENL

As for `CCN1CCN(CCCCN2CCOc3cc4c(Nc5ccc(Cl)cc5Cl)c(C#N)cnc4cc32)CC1` [Example 24, 9-(2,4-Dichloroanilino)-4-[4-(4-ethyl-1-piperazinyl)butyl]-3,4-dihydro-2H-[1,4]oxazino[2,3-g]quinoline-8-carbonitrile], on p60^c-src, half-maximal inhibition (IC50) was put at 1010 nM.
As for `N#Cc1cnc2cc3c(cc2c1Nc1ccc(F)c(Cl)c1)N(CCCCCl)CCO3` [Example 11, 1-(4-Chlorobutyl)-9-(3-chloro-4-fluoroanilino)-2,3-dihydro-1H-[1,4]oxazino[3,2-g]quinoline-8-carbonitrile], the IC50 in the experiment on Her2Neu is above 5 µg/mL; in the experiment with MDA435, above 5 µg/mL; in the experiment on SW620, above 5 µg/mL; with SKBR3, 2.53 µg/mL (≈ 5.68 µM); with A431, 1.9 µg/mL (≈ 4.27 µM); in the experiment on 3T3, 3.89 µg/mL (≈ 8.74 µM). For the same compound, the IC50 in [1] (recombinant enzyme) came out at 1 nM. For the same compound, at c-Met, at 10 µg/mL the inhibition was 42%. The inhibition at 0.5 µM in [1] was 73%.
For the compound `CN(C)CCCC(=O)N1CCOc2cc3ncc(C#N)c(Nc4ccc(F)c(Cl)c4)c3cc21` [Example 10], the IC50 with Her2Neu is above 5 µg/mL; in the experiment on MDA435, 2.72 µg/mL (≈ 5.81 µM); in the experiment on SW620, 1.89 µg/mL (≈ 4.04 µM); in the experiment with SKBR3 it was 1.07 µg/mL (≈ 2.28 µM); with A431 it was 1.01 µg/mL (≈ 2.15 µM); in the experiment on 3T3, 1.99 µg/mL (≈ 4.25 µM). Besides, the inhibition at 10 µg/mL at c-Met came to 50%. In addition, the inhibition at 0.5 µM in experiment [1] was 57.8%.
